Data: patent US20110190285A1 (priority 2008, published 2011)

These compounds were tested against botulinum toxin recombinant light chain (Clostridium botulinum, UniProt P0DPI0) (assay: biochemical). Conditions: not given.
botulinum toxin recombinant light chain, sequence (P0DPI0 2-448 limits assumed): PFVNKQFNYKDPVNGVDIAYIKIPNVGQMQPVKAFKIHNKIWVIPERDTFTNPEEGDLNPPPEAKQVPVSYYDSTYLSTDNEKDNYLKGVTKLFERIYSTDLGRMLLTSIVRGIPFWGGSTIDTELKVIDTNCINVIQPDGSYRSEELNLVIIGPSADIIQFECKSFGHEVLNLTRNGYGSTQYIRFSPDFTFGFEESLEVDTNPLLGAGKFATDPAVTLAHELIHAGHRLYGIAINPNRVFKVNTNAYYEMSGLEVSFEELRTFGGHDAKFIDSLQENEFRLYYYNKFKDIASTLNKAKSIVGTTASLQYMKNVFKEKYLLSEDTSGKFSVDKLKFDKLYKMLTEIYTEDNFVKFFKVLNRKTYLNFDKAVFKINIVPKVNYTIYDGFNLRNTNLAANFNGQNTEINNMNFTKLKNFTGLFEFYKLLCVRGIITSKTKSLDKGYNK

SMILES | IC50 [µM]
C[C@@H](NC(=O)CS)c1ccc2ccccc2c1 | 8 to 21
CC(NC(=O)CS)c1ccc(Cl)cc1Cl (stereo not drawn) [drawing 65] | 5 to 27

These compounds were tested against botulinum (serotype-A) (Clostridium botulinum, UniProt P0DPI1) (assay: cell-based). Conditions: read-out: Cell Biology (% inhibition at 30 uM).
botulinum (serotype-A), sequence (P0DPI1 2-1296 limits assumed): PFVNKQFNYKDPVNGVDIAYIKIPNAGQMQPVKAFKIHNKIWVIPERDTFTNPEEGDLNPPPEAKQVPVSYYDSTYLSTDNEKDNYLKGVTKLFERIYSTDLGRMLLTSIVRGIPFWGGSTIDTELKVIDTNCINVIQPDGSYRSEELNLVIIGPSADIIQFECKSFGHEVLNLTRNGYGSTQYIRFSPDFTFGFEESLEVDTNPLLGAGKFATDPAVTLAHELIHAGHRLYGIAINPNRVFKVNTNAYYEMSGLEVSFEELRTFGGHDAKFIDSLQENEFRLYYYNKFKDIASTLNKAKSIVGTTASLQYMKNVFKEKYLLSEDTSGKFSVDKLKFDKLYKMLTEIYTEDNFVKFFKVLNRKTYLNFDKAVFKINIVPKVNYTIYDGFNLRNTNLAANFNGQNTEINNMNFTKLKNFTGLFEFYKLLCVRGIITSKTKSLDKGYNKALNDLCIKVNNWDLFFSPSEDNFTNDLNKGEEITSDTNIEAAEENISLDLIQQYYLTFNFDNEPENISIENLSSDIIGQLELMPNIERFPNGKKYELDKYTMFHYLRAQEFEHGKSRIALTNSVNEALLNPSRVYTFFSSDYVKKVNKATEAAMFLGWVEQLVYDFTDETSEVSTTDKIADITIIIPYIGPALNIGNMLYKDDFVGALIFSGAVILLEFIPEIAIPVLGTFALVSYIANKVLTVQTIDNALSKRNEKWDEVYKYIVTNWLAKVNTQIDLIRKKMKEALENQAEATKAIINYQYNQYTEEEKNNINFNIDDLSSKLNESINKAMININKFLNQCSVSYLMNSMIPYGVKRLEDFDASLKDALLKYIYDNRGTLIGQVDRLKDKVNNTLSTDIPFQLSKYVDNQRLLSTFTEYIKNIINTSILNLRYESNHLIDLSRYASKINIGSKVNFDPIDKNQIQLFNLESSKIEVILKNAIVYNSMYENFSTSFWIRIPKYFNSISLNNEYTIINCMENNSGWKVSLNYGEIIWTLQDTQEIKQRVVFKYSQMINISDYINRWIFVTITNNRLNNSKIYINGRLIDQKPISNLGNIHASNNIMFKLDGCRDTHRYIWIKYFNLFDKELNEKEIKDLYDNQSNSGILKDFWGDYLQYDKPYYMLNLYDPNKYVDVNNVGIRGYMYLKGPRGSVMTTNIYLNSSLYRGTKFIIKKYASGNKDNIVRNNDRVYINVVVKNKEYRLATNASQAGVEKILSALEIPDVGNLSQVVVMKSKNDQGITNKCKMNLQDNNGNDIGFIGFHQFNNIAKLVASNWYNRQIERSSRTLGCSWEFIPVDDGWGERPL

SMILES | inhibition at 30 µM [%]
O=C(CS)Nc1cc(-c2ccc(Cl)cc2)n[nH]1 | 57 to 100
CCOC(=O)Cc1csc(NC(=O)CS)n1 | 86
Cc1ccc(NC(=O)CS)cc1C#N | 77
O=C(CS)Nc1ccc2c(c1)Cc1cc(Br)ccc1-2 | 90
O=C(CS)Nc1cc(-c2ccc(F)cc2)n[nH]1 | 73 to 78

Same assay, conditions: read-out: Cell Biology IC50

SMILES | IC50 [µM]
O=C(CS)Nc1cc(-c2ccc(Cl)cc2)n[nH]1 | 10 to 19
CC(NC(=O)CS)c1ccc(Cl)cc1Cl (stereo not drawn) [drawing 69] | 18
